The text below walks through data of patent US4072755A, “Novel cyclopentanoic acid derivatives” (Roussel UCLAF, priority 1975, dated 1978).

The subject of experiment [1] is guinea pig ileon. Description: Relaxant activity on the guinea pig ileon (isolated organ bath). To be noted: isolated terminal guinea pig ileon, oxygenated Tyrode liquid, 37° C; for minimal effective concentration: Cavia porcellus, read-out: Relaxant Activity (concentration which caused a suppression of spontaneous contractions and relaxed the organ). Here is the method: The relaxant effect of the test compounds was determined on guinea pig ileon using the following procedure. The terminal portion of the guinea pig ileon was removed and washed with Tyrode solution at 37° C. It was then suspended in a bath of oxygenated Tyrode liquid at 37° C and the contractions were registered on a collector attached to a Sanborn polygraph. The test product was added to bath of the organ with a low volume and the concentration which caused a suppression of spontaneous contractions and relaxed the organ causing a lowering of the line of the base was considered to be relaxant.

Experiment [2] deals with mice. Description: Analgesic activity - stretching provoked by acetic acid (Koster et al). It is filed as in vivo. To be noted: Mus musculus, 0.25 h, oral, one half hour before intraperitoneal 1% acetic acid 100 mg/kg, 15 minute observation, fasted, read-out: DA50 (dose which reduced the number of stretchings by 50%). Here is the method:
The test procedure was that of Koster et al wherein an intraperitoneal injection of aqueous acetic acid in a concentration of 1% at a dose of 100 mg/kg caused in mice repeated movements of stretching and twisting which can persist for more than 6 hours. Analgesics prevent or lessen the syndrome. The test products were orally administered one half hour before the acetic acid injection and the mice were fasted from the day before the test. The stretching were counted for each mouse during a 15 minute observation period beginning right after the acetic acid injection and the analgesic effect was expressed as a percentage of protection with respect to the controls.

The subject of experiment [3] is prostaglandin synthetases of lungs of guinea pigs. Description: Inhibitory effect against biosynthesis of prostaglandins starting with arachidonic acid by prostaglandin synthetases of lungs of guinea pigs (Vane). The class given is biochemical. To be noted: guinea pig lung homogenate supernatant, 10 μg arachidonic acid, 30 minutes at 37° C; prostaglandin-like activity read on isolated rat colon; read-out: CI50 (inhibited by 50% the biosynthesis activity). The text has this:
C. INHIBITORY EFFECT AGAINST BIOSYNTHESIS OF PROSTAGLANDINS SYNTHESIS OF PROSTAGLANDINS STARTING WITH ARACHIDONIC ACID BY MEANS OF PROSTAGLANDIN SYNTHETASES OF LUNGS OF GUINEA PIGS.
This test used the procedure of Vane [Nature New Biology, Vol. 231 (1971), p. 232-235] wherein the lungs of adult guinea pigs (2 per series) were rapidly removed and washed with a modified, iced Bucher medium. The lung tissue was homogenized in a Turrax grinder in a minute and the homogenate was centrifuged for 20 minutes to 1200 g. The supernatant was used as a preparation of prostaglandin synthetases.
A solution of arachidonic acid in ethanol at a concentration of 10 mg/ml was diluted with a 0.2% aqueous sodium carbonate solution and was then diluted further with a modified Bucher medium to obtain a final acid concentration of 200 μg/ml. The biosynthesis inhibitors are put into aqueous or dilute alcohol (20% maximum) solutions. Tubes were prepared containing 1 ml of the prostaglandin synthetases preparation, 10 μg of arachidonic acid and 0.1 ml of inhibiting solution or, for the controls, an equal volume of water or dilute alcohol. The tubes were incubated with stirring for 30 minutes at 37° C in aerobic conditions and each test consisted of a tube containing a biosynthesis inhibitor, one biosynthesis control with incubated arachidonic acid and one control with non-incubated arachidonic acid. The latter control permitted a evaluation of amount of natural prostaglandins present in the ground lung and the results obtained with this control must therefore be taken away from the control of biosynthesis and from all the tests. The reactions were stopped by immension in boiling water until the proteins are coagulated. The dosage of "prostaglandin like" activity was effected biologically on the isolated rat colon suspended in Krebs liquid, mixed to augment the specificity, with antagonists to other contracturant mediators susceptible to interfere. The antagonists were mepyramine, scopolamine, methysergide, phenoxybenzamine and propanolol.
A comparison of the results registered in the presence or absence of a test product permitted the calculation of the percentage of biosynthesis inhibition. The CI50 dose which inhibited by 50% the biosynthesis activity was graphically obtained by straight line representing the percent of inhibition with reference to the incubated controls against the log of the concentration in μg/ml and the results are reported in Table II.

The structures appear in SMILES notation.

With `CCCCC[C@H](O)/C=C/[C@H]1CC[C@H](O)[C@H]1CO` (racemic) [Product A, (1RS, 2SR, 5RS, 3'SR) (1'E) 2,3'-dihydroxy-5-(1'-octenyl)-cyclopentane methonol], the “Relaxant Activity (concentration which caused a suppression of spontaneous contractions and relaxed the organ)” value in experiment [1] was 20 µg/mL. As for `CCCCC[C@@H](/C=C/[C@H]1CC[C@H](O)[C@@H]1C(=O)OCC)OC(=O)c1ccccc1C(=O)O` (relative stereo) [Product B, ethyl (1RS, 2SR, 5RS, 3'SR) (1'E) 2-hydroxy-5-(3'-α-hemiphthaloyloxy-1'-octenyl)-cyclopentanecarboxylate], the ED50 in experiment [2] was about 100 mg/kg. As to `CCCCCCCCCC(=O)O[C@H](/C=C/[C@H]1CC[C@H](O)[C@@H]1C(=O)OCC)CCCCC` (relative stereo) [Product C, ethyl (1RS, 2SR, 5RS, 3'SR) (1'E) 2-hydroxy-5-(3'-decanoyloxy-1'-octenyl)-cyclopentanecarboxylate], the minimal effective concentration in experiment [1] is 20 µg/mL. Also, in experiment [3], the IC50 stood at 137 µM. In the same order, the values of `CCCCC[C@@H](/C=C/[C@H]1CC[C@H](O)[C@@H]1C(=O)OCC)OC` (relative stereo) [Product D, ethyl (1RS, 2SR, 5RS, 3'SR) (1'E) 2-hydroxy-5-(3'methoxy-1'-octenyl)-cyclopentanecarboxylate] are 5 µg/mL and 436 µM. In the same order, the values of `CCCCC[C@@H](/C=C/[C@H]1CC[C@@H](O)[C@@H]1C(=O)OCC)OC` (relative stereo) [Product E, ethyl (1RS, 2RS, 5RS, 3'SR) (1'E) 2-hydroxy-5(3'-methoxy-1'-octenyl)-cyclopentanecarboxylate] are 10 µg/mL and 671 µM. Take `CCCCC[C@@H](/C=C/[C@H]1CC[C@H](O)[C@@H]1C(=O)OCC)OC(=O)CCC(=O)O` (relative stereo) [Product F, ethyl (1RS, 2SR, 5RS, 3'SR) (1'E) 2-hydroxy-5-(3'-hemisuccinyloxy-1'-octenyl)-cyclopentanecarboxylate]: the IC50 in experiment [3] came to 123 µM. Same read-out and setting: the value for `CCCCCCCCCC(=O)O[C@H](/C=C/[C@H]1CC[C@@H](O)[C@@H]1C(=O)OCC)CCCCC` (relative stereo) [Product G, ethyl (1RS, 2RS, 5RS, 3'SR) (1'E) 2-hydroxy-5-(3'-decanoyloxy-1'-octenyl)-cyclopentanecarboxylate] was 113 µM.
